In article PMC10223454, “Functional Characterization of a New Degradation Peptide BmTX4-P1 from Traditional Chinese Scorpion Medicinal Material” (Toxins, 2023):
Peptide text beside a SMILES is read from it.

Columns and labels:
hKv1.1 channel = assay: whole-cell patch clamp, hKv1.1 channel currents; assay type: cell-based, human; conditions: 1 µM, n ≥ 3
Text: (§1) The source of potassium channel plasmids was described in detail in previous articles. The cDNA encoding hKv1.1 channel, hKv1.3 channel, and rKv4.3 channel were subcloned into the vector of pCDNA3.1(+). The cDNA encoding hKv1.2 channel, hKv1.6 channel, hKv3.2 channel, hERG channel, and mKv4.1 channel were subcloned into the vector of pIRES2-EGFP. The cDNA encoding rKv4.2 was subcloned into the vector of pEGFP-N1.
(§2) DMEM (Gibco, Pittsburgh, PA, USA) with 10% fetal bovine serum and 1% penicillin/streptomycin was applied to culture HEK293T cells in an incubator with 5% CO2 at 37 °C. According to the manufacturer’s instructions, ExFect Transfection Reagent (Vazyme, Nanjing, China) was used to co-transfect the plasmids of pEGFP-N1 and potassium channels into HEK293T cells. Fluorescence-positive cells were selected for electrophysiological experiments after transfection for 12 h to 24 h.
(§3) Whole-cell channel currents were measured and recorded by an EPC-10 patch-clamp amplifier controlled by PatchMaster (HEKA Elektronik, Lambrecht, Germany). The internal patch pipette solution and bath solution were prepared according to the protocol in previously published references. […] The currents of different potassium channels were generated and recorded following the respective protocols according to previously published references. […]

hKv1.2 channel = molecular target: T1, hKv1.2 channel (Homo sapiens, UniProt P16389); assay: whole-cell patch clamp, hKv1.2 channel currents; assay type: cell-based; conditions: for IC50: peak tail current, Hill equation fit
T1 construct: expressed in transfected cells
T1 sequence (P16389 whole entry): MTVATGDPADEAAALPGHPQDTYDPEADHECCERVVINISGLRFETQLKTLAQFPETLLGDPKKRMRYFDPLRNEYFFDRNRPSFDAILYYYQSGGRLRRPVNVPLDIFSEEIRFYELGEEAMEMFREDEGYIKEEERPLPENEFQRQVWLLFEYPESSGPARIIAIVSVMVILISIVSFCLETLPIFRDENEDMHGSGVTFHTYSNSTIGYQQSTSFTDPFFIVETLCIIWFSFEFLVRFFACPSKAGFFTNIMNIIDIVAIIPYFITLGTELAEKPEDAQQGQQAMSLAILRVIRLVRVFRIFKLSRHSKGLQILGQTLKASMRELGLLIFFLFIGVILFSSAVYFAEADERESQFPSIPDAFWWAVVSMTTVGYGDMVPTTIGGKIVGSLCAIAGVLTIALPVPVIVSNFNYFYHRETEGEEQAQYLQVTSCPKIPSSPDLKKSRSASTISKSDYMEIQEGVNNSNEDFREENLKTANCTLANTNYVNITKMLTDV
Text: as §1, §2
(§4) Whole-cell channel currents were measured and recorded by an EPC-10 patch-clamp amplifier controlled by PatchMaster (HEKA Elektronik, Lambrecht, Germany). The internal patch pipette solution and bath solution were prepared according to the protocol in previously published references. Bath solution with 0.01% BSA (Gibco, Pittsburgh, PA, USA) was used to dissolve peptides for electrophysiological testing. The external recording bath solution was exchanged by the MPS-2 multichannel microperfusion system (INBIO Inc., Wuhan, China). The currents of different potassium channels were generated and recorded following the respective protocols according to previously published references. The results of the electrophysiological experiment are presented as the mean ± SE, and more than three cells from each sample were examined (n ≥ 3).
(§5) The software of Clampfit (Molecular Devices, Sunnyvale, CA, USA) and Sigmaplot (IBM SPSS, Chicago, IL, USA) were applied to analyze the electrophysiological data. In order to obtain IC50 values, the concentrations of peptides and currents of potassium channels were used to fit the modified Hill equation for dose–response relationships: Ipeptide/Icontrol = 1/[1 + Cpeptide/IC50], in which Ipeptide and Icontrol represent the peak tail current of potassium channels in the presence and absence of peptide, Cpeptide represents the concentration of peptides and IC50 represents the half-maximum inhibition concentration. The results are presented as the mean ± SE.

hKv1.3 channel = molecular target: T2, hKv1.3 channel (Homo sapiens, UniProt P22001); assay: whole-cell patch clamp, hKv1.3 channel currents; assay type: cell-based; conditions: for IC50: peak tail current, Hill equation fit
T2 construct: expressed in transfected cells
T2 sequence (P22001 whole entry): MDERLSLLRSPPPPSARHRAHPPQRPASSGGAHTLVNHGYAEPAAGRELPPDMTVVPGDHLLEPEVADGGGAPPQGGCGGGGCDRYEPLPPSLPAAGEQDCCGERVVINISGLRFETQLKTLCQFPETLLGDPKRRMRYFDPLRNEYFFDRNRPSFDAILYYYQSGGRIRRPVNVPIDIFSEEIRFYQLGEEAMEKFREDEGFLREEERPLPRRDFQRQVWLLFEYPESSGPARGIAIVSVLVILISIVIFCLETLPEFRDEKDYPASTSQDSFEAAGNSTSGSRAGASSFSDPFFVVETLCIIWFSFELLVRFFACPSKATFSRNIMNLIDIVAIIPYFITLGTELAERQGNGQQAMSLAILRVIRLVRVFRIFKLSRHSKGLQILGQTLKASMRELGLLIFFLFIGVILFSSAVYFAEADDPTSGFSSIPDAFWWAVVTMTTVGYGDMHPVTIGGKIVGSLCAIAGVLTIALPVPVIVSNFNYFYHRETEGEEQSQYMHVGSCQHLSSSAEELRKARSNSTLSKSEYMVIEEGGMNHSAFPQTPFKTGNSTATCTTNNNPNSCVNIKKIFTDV
Text: as §1, §2, §4, §5

hKv1.6 channel = assay: whole-cell patch clamp, hKv1.6 channel currents; assay type: cell-based, human; conditions: 1 µM, transiently transfected HEK293 cells, mean ± SE, n ≥ 3
Text: as §1, §2, §3

hKv3.2 channel = assay: whole-cell patch clamp, hKv3.2 channel currents; assay type: cell-based, human; conditions: 1 µM, transiently transfected HEK293 cells, mean ± SE, n ≥ 3
Text: as §1, §2, §3

rKv4.1 channel = assay: whole-cell patch clamp, rKv4.1 channel currents; assay type: cell-based, rat; conditions: 1 µM, transiently transfected HEK293 cells, mean ± SE, n ≥ 3
rKv4.2 channel = assay: whole-cell patch clamp, rKv4.2 channel currents; assay type: cell-based, rat; conditions: 1 µM, transiently transfected HEK293 cells, mean ± SE, n ≥ 3
Text: as §1, §2, §3

mKv4.3 channel = assay: whole-cell patch clamp, mKv4.3 channel currents; assay type: cell-based, mouse; conditions: 1 µM, transiently transfected HEK293 cells, mean ± SE, n ≥ 3
hERG channel = assay: in vitro; assay type: cell-based; conditions: human, whole-cell patch clamp, transiently transfected HEK293 cells, mean ± SE, n ≥ 3, read-out: inhibition of hERG channel currents
Text: as §1, §2, §3

[1] = 1 µM, transiently transfected HEK293 cells, mean ± SE, n ≥ 3

Structure (SMILES)	inhibition of hKv1.1 channel currents (hKv1.1 channel; transiently transfected HEK293 cells, mean ± SE) [%]	inhibition at 0.008 µM (hKv1.2 channel; 8 nM, mean ± SE, n ≥ 3, read-out: inhibition rate of hKv1.2 channel current) [%]	inhibition at 0.04 µM (hKv1.2 channel; 40 nM, mean ± SE, n ≥ 3, read-out: inhibition rate of hKv1.2 channel current) [%]	inhibition at 0.2 µM (hKv1.2 channel; 200 nM, mean ± SE, n ≥ 3, read-out: inhibition rate of hKv1.2 channel current) [%]	inhibition at 1 µM (hKv1.2 channel; [1]) [%]	IC50 (hKv1.2 channel; mean ± SE, n ≥ 3) [nM]	inhibition at 0.008 µM (hKv1.3 channel; 8 nM, mean ± SE, n ≥ 3, read-out: inhibition rate of hKv1.3 channel current) [%]	inhibition at 0.04 µM (hKv1.3 channel; 40 nM, mean ± SE, n ≥ 3, read-out: inhibition rate of hKv1.3 channel current) [%]	inhibition at 0.2 µM (hKv1.3 channel; 200 nM, mean ± SE, n ≥ 3, read-out: inhibition rate of hKv1.3 channel current) [%]	inhibition at 1 µM (hKv1.3 channel; [1]) [%]	IC50 (hKv1.3 channel; mean ± SE, n ≥ 3) [nM]	inhibition of hKv1.6 channel currents (hKv1.6 channel) [%]	inhibition of hKv3.2 channel currents (hKv3.2 channel) [%]	inhibition of rKv4.1 channel currents (rKv4.1 channel) [%]	inhibition of rKv4.2 channel currents (rKv4.2 channel) [%]	inhibition of mKv4.3 channel currents (mKv4.3 channel) [%]	inhibition at 1 µM (hERG channel) [%]	effect on hKv1.1 channel current (in words) (hKv1.1 channel)	inhibition of hKv1.2 channel current (in words) (hKv1.2 channel; 1 µM)	inhibition of hKv1.3 channel current (in words) (hKv1.3 channel; 1 µM)
CSCC[C@@H]1NC(=O)[C@@H]2CSSC[C@H](NC(=O)[C@@H](N)CCCCN)C(=O)N[C@@H]([C@@H](C)O)C(=O)N[C@@H](C)C(=O)N[C@@H](CO)C(=O)N[C@@H](CCCCN)C(=O)N[C@@H](CCC(N)=O)C(=O)N[C@H]3CSSC[C@H](NC(=O)[C@H](CCCCN)NC(=O)CNC(=O)[C@H](CC(N)=O)NC1=O)C(=O)N[C@@H](CCCNC(=N)N)C(=O)N[C@H](C(=O)N[C@@H](Cc1ccc(O)cc1)C(=O)O)CSSC[C@H](NC(=O)[C@H](C(C)C)NC(=O)[C@@H]1CCCN1C(=O)[C@H](Cc1c[nH]c4ccccc14)NC3=O)C(=O)N[C@@H](CCCCN)C(=O)N[C@@H](CCC(N)=O)C(=O)N[C@@H](CCSC)C(=O)N[C@@H](Cc1ccccc1)C(=O)NCC(=O)N[C@@H](CCCCN)C(=O)N1CCC[C@H]1C(=O)N[C@@H](CC(N)=O)C(=O)NCC(=O)N[C@@H](CCCCN)C(=O)N2 [sBmTX4-P1] (HELM PEPTIDE1{K.C.T.A.S.K.Q.C.W.P.V.C.K.Q.M.F.G.K.P.N.G.K.C.M.N.G.K.C.R.C.Y}$PEPTIDE1,PEPTIDE1,2:R3-23:R3|PEPTIDE1,PEPTIDE1,8:R3-28:R3|PEPTIDE1,PEPTIDE1,12:R3-30:R3$$$V2.0; N-terminus and C-terminus assumed; bridges inferred)	5.9 ± 1.5	13.5 ± 1.6	40.2 ± 3.7	66 ± 6.3	88.4 ± 2	74.7 ± 7	13.6 ± 3.7	32.6 ± 5.3	60.7 ± 2.9	73.1 ± 2.8	124 ± 26.7	18.3 ± 4.3	5.3 ± 3.1	7.0 ± 1.8	6.9 ± 4.6	6.8 ± 2.8	35.7 ± 2.1			
CSCC[C@@H]1NC(=O)[C@@H]2CSSC[C@H](NC(=O)[C@@H](N)CCCCN)C(=O)N[C@@H]([C@@H](C)O)C(=O)N[C@@H](C)C(=O)N[C@@H](CO)C(=O)N[C@@H](CCCCN)C(=O)N[C@@H](CCC(N)=O)C(=O)N[C@H]3CSSC[C@H](NC(=O)[C@H](CCCCN)NC(=O)CNC(=O)[C@H](CC(N)=O)NC1=O)C(=O)N[C@@H](CCCNC(=N)N)C(=O)N[C@H](C(=O)N[C@@H](Cc1ccc(O)cc1)C(=O)O)CSSC[C@H](NC(=O)[C@H](C(C)C)NC(=O)[C@@H]1CCCN1C(=O)[C@H](Cc1c[nH]c4ccccc14)NC3=O)C(=O)N[C@@H](CCCCN)C(=O)N[C@@H](CCC(N)=O)C(=O)N[C@@H](CCSC)C(=O)N[C@@H](Cc1ccccc1)C(=O)NCC(=O)N[C@@H](CCCCN)C(=O)N1CCC[C@H]1C(=O)N[C@@H](CC(N)=O)C(=O)NCC(=O)N[C@@H](CCCCN)C(=O)N2 [rBmTX4-P1] (HELM PEPTIDE1{K.C.T.A.S.K.Q.C.W.P.V.C.K.Q.M.F.G.K.P.N.G.K.C.M.N.G.K.C.R.C.Y}$PEPTIDE1,PEPTIDE1,2:R3-23:R3|PEPTIDE1,PEPTIDE1,8:R3-28:R3|PEPTIDE1,PEPTIDE1,12:R3-30:R3$$$V2.0; C-terminus assumed; bridges inferred)						45.7 ± 9.2					247 ± 47.9							hardly inhibited the hKv1.1 channel current	inhibited the currents of the hKv1.2 and hKv1.3 channels with high affinities	inhibited the currents of the hKv1.2 and hKv1.3 channels with high affinities
